We go through 1 compound from patent US7189505B2, “Methods of assessing HIV integrase inhibitor therapy” (Tibotec BVBA, priority 2001, dated 2007).

SMILES strings stand for the structures.

Common to all, as to assay type: cell-based, HIV-1
The test system of assay [1] is recombinant virus generated from HXB2D site-directed mutant virus, integrase T66I mutation. Nature of the assay: Antiviral experiment with recombinant virus from site-directed mutant virus, T66I. The conditions noted are these: versus wild type, MT4-LTR-EGFP cells. The protocol: (§1) The integrase encoding sequence was amplified from either wildtype HIV-1 (IIIB) or NL4.3 virus, or HXB2D site-directed mutant viruses containing mutations in integrase (such as T66I, S153Y, M154I, or combinations thereof) (Hazuda et al., Science 2000, 287, 646–650), or patient samples. Starting from RNA, extracted from virus supernatant or plasma using the QIAamp® viral RNA extraction kit (Qiagen), cDNA was synthesized by reverse transcription (Expand™ reverse transcriptase, 30 min at 42° C.) with the primer 3′EGINT10 (SEQ ID NO 11), followed by a nested PCR. […]
(§2) Recombinant virus was produced by co-transfection by electroporation of the SmaI-linearized IN-deletion construct and the integrase amplicon into MT4 cells or MT4 cells equipped with an LTR driven reporter gene construct. Production of recombinant virus was evaluated by scoring the cytopathogenic effect (CPE) that is induced by HIV-infection of MT4 cells or by the LTR-driven reporter signal induced by HIV infection in MT4 reporter cells. […]

Assay [2] relates to recombinant virus generated from HXB2D site-directed mutant virus, integrase S153Y. Nature of the assay: Antiviral experiment with recombinant virus from site-directed mutant virus, S153Y. The note with it: S153Y mutation in integrase; versus wild type; MT4-LTR-EGFP cells. The protocol: as §1, §2
Assay [3] deals with recombinant virus generated from HXB2D site-directed mutant virus, integrase T66I/M154I mutations. The experiment in a line: Antiviral experiment with recombinant virus from site-directed mutant virus, T66I/M154I. The conditions noted are these: versus wild type, MT4-LTR-EGFP cells. The method, then:
as §1, §2

Assay [4] deals with recombinant virus generated from HXB2D site-directed mutant virus, integrase T66I/S153Y mutations. The experiment in a line: Antiviral experiment with recombinant virus from site-directed mutant virus, T66I/S153Y. The conditions noted are these: versus wild type, MT4-LTR-EGFP cells. The protocol:
as §1, §2

The subject of assay [5] is recombinant virus generated from HXB2D site-directed mutant virus, integrase M154I mutation. Nature of the assay: Antiviral experiment with recombinant virus from site-directed mutant virus, M154I. The conditions noted are these: versus wild type, MT4-LTR-EGFP cells. The protocol:
as §1, §2

Consider `CC(C)Oc1ccc(Cc2ccccc2)cc1C(=O)CC(=O)C(=O)O` [compound 4, 2-(1-methylethyloxy)-, -dioxo-5-(phenylmethyl)-benzenebutanoic acid], for which the “fold increase in EC50” value in assay [1] turned out to be 2 fold; in assay [2] it was 5 fold; in assay [3] it was 10 fold; in assay [4], 10 fold; in assay [5], 3 fold.
